The record followed here is US20030068286A1, “Self-tanning compositions having improved coloration using 3,5-dimethoxy-4-hydroxybenzaldehyde and 1,3-dihydroxyacetone” (priority 2001, published 2003).

Molecules are shown by their SMILES.

One series concerns skin. In words: Skin coloration by the Maillard reaction (self-tanning) after application to the skin. The series is classed as in vivo. The conditions noted are these: for coloration produced in the skin: applied to the skin, melanoidins in the upper layers of skin. How it is done:
The secondary compound, 3,5-dimethoxy-4-hydroxybenzaldehyde, is applied to the skin along with DHA.
Over time, the chemical stability of unprotected DHA is reduced, producing undesirable chemical compounds such as methylglyoxal and formic acid. […] The Maillard reaction produced by the DHA take sup to 5 hours to produce melanoidins, or colored compounds, in the upper layers of the skin. By the time an undesirable coloration develops, the wearer is helpless to remove or adjust the coloration, and must wait until their upper layers of skin are shed in order to rid themselves of the off-color.
FIG. 1 illustrates the chemical structure of 3,5-dimethoxy-4-hydroxybenzaldehyde. Structurally, this compound is a vanillin, or a hydroxymethoxybenzaldehyde.

The nature of the next series: Water solubility. The text has this:
The 3,5-dimethoxy-4-hydroxybenzaldehyde, as a water-insoluble aldehyde, is chemically compatible with water-soluble DHA. The compounds exist in two separate phases of a cosmetic formulation, the water phase and the oil phase.

Consider `O=C(CO)CO` [DHA, 1,3-dihydroxyacetone], for which the “coloration produced in the skin” value in the series on skin is listed as “orange-brown”. Moreover, the “coloration produced on the skin by degraded DHA” value in the series on skin (degraded or "stale" DHA applied to the skin) is “orange coloration”. Further, the “time of the Maillard reaction to produce melanoidins in the upper layers of the skin” value in the series with skin (in vivo) is given as “up to 5 hours”.

For the compound `CCOc1cc(C=O)ccc1O` [ethylvanillin], the “coloration produced in the skin” value in the series on skin is reported as “do not produce similar coloration or any Maillard reaction mechanism”.

Take `COc1cccc(C=O)c1O` [ortho-vanillin]: the “coloration produced in the skin” value in the series with skin was “do not produce similar coloration or any Maillard reaction mechanism”.

`COc1cc(C=O)cc(OC)c1O` [3,5-dimethoxy-4-hydroxybenzaldehyde]: the “coloration produced in the skin” value in the series on skin was “olive-green”. The “Maillard reaction rate relative to DHA” value in the series with skin (compared with DHA, attributed to larger molecular size and longer penetration time into the skin) was “slightly slower”. The water solubility entry in “Water solubility” is listed as “water-insoluble”.
